These results are taken from US7851474B2, “Dipiperazinyl ketones and related analogues” (Neurogen Corporation, priority 2005, dated 2010).

Read-outs that look alike come from different tables or passages of the source.

In the experiment the target is T1, chimeric human H3 receptor (Homo sapiens, UniProt Q9Y5N1, E19D).
T1 construct: made in house; host or cells: Sf9 insect cells (baculovirus infection); P2 membrane preparation
Nature of the experiment: Chimeric human H3 receptor screening GTP binding assay (inhibition of histamine-stimulated GTP-gamma35S binding, Example 8). It is filed as biochemical. Conditions: 1 h, read-out: percent inhibition of agonist-induced GTP-gammaS binding to H3. Put shortly: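 Data are percent inhibition of the 1 μM histamine-stimulated GTP-gamma35S (125 pM) binding, after non-specific binding (10 uM GTP-gammaS) is subtracted. Test compound at 4 μM. Incubation was 60 min at room temperature with Sf9 membranes bearing receptor plus G-protein subunits, buffer pH 7.4 with 10 μM GDP, and filtration read-out.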

Setting [1] is: assay described in Example 8, symbol + in column headed Ki of Table II.
[2] abbreviates: Table II, "+" in the column headed Ki, assay of Example 8.
Setting [3] is: "+" in Ki of Table II, assay of Example 8.
The mark [4] stands for this setting: Table II "Ki", symbol "+": assay described in Example 8.

T1 sequence (Q9Y5N1 with tags, fused parts or gaps E19D): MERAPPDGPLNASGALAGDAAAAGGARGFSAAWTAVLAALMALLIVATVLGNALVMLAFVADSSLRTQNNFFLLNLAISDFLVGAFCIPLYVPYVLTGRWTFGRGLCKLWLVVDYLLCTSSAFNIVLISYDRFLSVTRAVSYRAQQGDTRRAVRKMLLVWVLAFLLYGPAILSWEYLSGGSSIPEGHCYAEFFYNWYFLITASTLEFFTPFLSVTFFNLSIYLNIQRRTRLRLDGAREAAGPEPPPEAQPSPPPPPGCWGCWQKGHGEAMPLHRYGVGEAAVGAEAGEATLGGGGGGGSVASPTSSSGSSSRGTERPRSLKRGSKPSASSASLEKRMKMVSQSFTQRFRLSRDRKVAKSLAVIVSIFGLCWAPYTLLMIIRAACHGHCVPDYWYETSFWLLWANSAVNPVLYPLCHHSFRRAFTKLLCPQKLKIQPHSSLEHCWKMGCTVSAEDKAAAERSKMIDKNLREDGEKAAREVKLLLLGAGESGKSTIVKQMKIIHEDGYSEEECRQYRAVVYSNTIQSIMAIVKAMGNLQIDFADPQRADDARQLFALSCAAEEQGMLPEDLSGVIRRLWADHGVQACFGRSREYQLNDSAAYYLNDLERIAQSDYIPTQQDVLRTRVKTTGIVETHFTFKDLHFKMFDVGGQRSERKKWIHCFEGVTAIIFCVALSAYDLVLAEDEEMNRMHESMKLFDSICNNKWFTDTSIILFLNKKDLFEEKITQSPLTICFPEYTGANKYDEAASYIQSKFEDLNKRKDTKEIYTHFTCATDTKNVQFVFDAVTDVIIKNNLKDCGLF

In the case of `CCCCOc1ccc(C(=O)N2CCN(CC(=O)N3CCN(C4CCC4)CC3)CC2)cc1` [Compound 340, 1-(4-butoxybenzoyl)-4-[2-(4-cyclobutylpiperazin-1-yl)-2-oxoethyl]piperazine], the inhibition at 4 µM under setting [1] is above 90%. Same read-out and setting: with `Cc1cc(C(=O)N2CCN(CC(=O)N3CCN(C4CCC4)CC3)CC2)ccc1Cl` [Compound 348, 1-(4-chloro-3-methylbenzoyl)-4-[2-(4-cyclobutylpiperazin-1-yl)-2-oxoethyl]piperazine] the figure was above 90%. As for `COc1cccc(C(=O)N2CCN(CC(=O)N3CCN(C4CCC4)CC3)CC2)c1` [Compound 757, 1-cyclobutyl-4-{[4-(3-methoxybenzoyl)piperazin-1-yl]acetyl}piperazine], under setting [2], the inhibition at 4 µM is above 90%.

Consider `Nc1cc(Cl)ccc1C(=O)N1CCN(CC(=O)N2CCN(C3CCC3)CC2)CC1` [Compound 1163, 5-chloro-2-({4-[2-(4-cyclobutylpiperazin-1-yl)-2-oxoethyl]piperazin-1-yl}carbonyl)aniline], for which the inhibition at 4 µM (assay of Example 8, "+" in Ki of Table II) was above 90%. `Cc1ccccc1/C=C/C(=O)N1CCN(CC(=O)N2CCN(C3CCC3)CC2)CC1` [Compound 526, 1-cyclobutyl-4-({4-[(2E)-3-(2-methylphenyl)prop-2-enoyl]piperazin-1-yl}acetyl)piperazine]: the inhibition at 4 µM under setting [3] was above 90%. On the same count and under the same terms, with `CCCCn1c(C(=O)N2CCN(CC(=O)N3CCN(C4CCC4)CC3)CC2)cc2ccccc21` [Compound 495, 1-butyl-2-({4-[2-(4-cyclobutylpiperazin-1-yl)-2-oxoethyl]piperazin-1-yl}carbonyl)-1H-indole] the figure was above 90%; with `Cc1oc(-c2ccc(Cl)cc2)cc1C(=O)N1CCN(CC(=O)N2CCN(C3CCC3)CC2)CC1` [Compound 470, 1-[5-(4-chlorophenyl)-2-methyl-3-furoyl]-4-[2-(4-cyclobutylpiperazin-1-yl)-2-oxoethyl]piperazine], above 90%. For `O=C(CN1CCN(C(=O)c2ccccc2F)CC1)N1CCN(C2CCC2)CC1` [Compound 706, 1-cyclobutyl-4-{[4-(2-fluorobenzoyl)piperazin-1-yl]acetyl}piperazine], the inhibition at 4 µM under setting [2] is above 90%. Consider `CCCOc1ccc(C(=O)N2CCN(CC(=O)N3CCN(C4CCC4)CC3)CC2)cc1` [Compound 788, 1-cyclobutyl-4-{[4-(4-propoxybenzoyl)piperazin-1-yl]acetyl}piperazine], for which the inhibition at 4 µM under setting [4] is above 90%. Turning to `O=C(Cc1ccccc1C(F)(F)F)N1CCN(CC(=O)N2CCN(C3CCC3)CC2)CC1` [Compound 622, 1-cyclobutyl-4-[(4-{[2-(trifluoromethyl)phenyl]acetyl}piperazin-1-yl)acetyl]piperazine], under setting [2], the inhibition at 4 µM was above 90%. Regarding `O=C(CN1CCN(C(=O)c2ccno2)CC1)N1CCN(C2CCC2)CC1` [Compound 795, 1-cyclobutyl-4-{[4-(isoxazol-5-ylcarbonyl)piperazin-1-yl]acetyl}piperazine], under setting [4], the inhibition at 4 µM is above 90%. Consider `COc1ccc(/C=C/C(=O)N2CCN(CC(=O)N3CCN(C4CCC4)CC3)CC2)cc1` [Compound 530, 1-cyclobutyl-4-({4-[(2E)-3-(4-methoxyphenyl)prop-2-enoyl]piperazin-1-yl}acetyl)piperazine], for which, under setting [3], the inhibition at 4 µM was above 90%. For the molecule `O=C(CN1CCN(C(=O)c2ccc3c(c2)CCO3)CC1)N1CCN(C2CCC2)CC1` [Compound 669, 1-cyclobutyl-4-{[4-(2,3-dihydro-1-benzofuran-5-ylcarbonyl)piperazin-1-yl]acetyl}piperazine], the inhibition at 4 µM under setting [2] was above 90%. Consider `Cc1ccc(Oc2ccccc2C(=O)N2CCN(CC(=O)N3CCN(C4CCC4)CC3)CC2)cc1` [Compound 576], for which, under setting [2], the inhibition at 4 µM was above 90%.

Take `O=C(CN1CCN(C(=O)c2c(F)cccc2C(F)(F)F)CC1)N1CCN(C2CCC2)CC1` [Compound 582]: under setting [2], the inhibition at 4 µM was above 90%.

In the case of `Cc1cc(C(=O)N2CCN(CC(=O)N3CCN(C4CCC4)CC3)CC2)oc1C` [Compound 766, 1-cyclobutyl-4-{[4-(4,5-dimethyl-2-furoyl)piperazin-1-yl]acetyl}piperazine], the inhibition at 4 µM under setting [2] was above 90%.
